pIC50: −log10 of the molar value. Like-named read-outs stand apart in the source and are kept apart here. Values belong to the compound of their own block, whether it stands above or below them.
Legend:
[1] = animals; cited from earlier work
[2] = humans; absolute terms, curcumin alone at the non detectable level; cited from earlier work
[3] = curcumin dose 100 mg/kg (NPs) or 250 mg/kg (others); cited from earlier work
[4] = human, in vivo
[5] = target: T1, UDP-glucose dehydrogenase (UDP-GDH) (Homo sapiens, UniProt O60701); experiment: Spectrophotometric test of inhibition of UDP-glucose dehydrogenase; assay type: biochemical; details: for type of inhibition of UDP-GDH: in relation to enzyme/substrate and cofactor NAD+; for pIC50: 37° C., 340 nm
T1 sequence (O60701 1-494): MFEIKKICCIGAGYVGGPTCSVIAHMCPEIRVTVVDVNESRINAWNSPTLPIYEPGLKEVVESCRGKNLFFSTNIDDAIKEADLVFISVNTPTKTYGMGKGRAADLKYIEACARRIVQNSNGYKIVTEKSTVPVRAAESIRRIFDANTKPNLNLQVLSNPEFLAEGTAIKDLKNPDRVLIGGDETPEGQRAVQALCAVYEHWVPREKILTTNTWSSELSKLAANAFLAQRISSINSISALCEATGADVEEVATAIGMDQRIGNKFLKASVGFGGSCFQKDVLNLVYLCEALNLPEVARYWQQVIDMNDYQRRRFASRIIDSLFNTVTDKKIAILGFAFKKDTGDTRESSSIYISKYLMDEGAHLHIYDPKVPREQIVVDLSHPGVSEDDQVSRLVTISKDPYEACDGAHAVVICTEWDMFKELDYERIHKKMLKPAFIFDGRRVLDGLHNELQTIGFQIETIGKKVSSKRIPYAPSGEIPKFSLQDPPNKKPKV
Procedure: The UDP-GDH enzyme catalyses the oxidation of the UDP-glucose using the NAD+ as the oxidant agent, according to the following formula: […]
UDP-glucose+2NAD++H2O→UDP-glucuronic acid+2NADH+2H+
For the spectrophotometric evaluation of the enzymatic activity the following reactive mix has been used:
The test has been done at 37° C. and monitored at 340 nm for 20 minutes.
The algae has thus been suspended in different concentrations (10-50-100 mg/ml) in distilled water on the one hand and in 100% ethanol on the other; then homogenized and afterwards centrifuged at 5000 rpm for 10 minutes. We have then checked through spectrophotometry the presence in the two extracts of the relevant components, verifying the presence of phycocyanins at 620 nm for the water extract and of carotenoids at 400 nm and chlorophyll at 664 nm for the ethanol extract.

Compound: O=C(/C=C/C=C/c1ccc2c(c1)OCO2)N1CCCCC1 [Piperine, piperine]
plasma concentration increase of curcumin [1]: 154% | plasma concentration increase of curcumin [2]: 2000%

time of absorption peak after ingestion [4]: approximately 15 min | time of peak after ingestion [4]: approximately 1 hour
Compound: COc1cc(/C=C/C(=O)CC(=O)/C=C/c2ccc(O)c(OC)c2)ccc1O [curcumin alone, curcumin]
AUC [3]: 312 ng·h/mL | Cmax [3]: 90.3 ng/mL

type of inhibition of UDP-GDH [5]: mixed type | pIC50 ([5]; purified molecule): 5.62
Compound: phycocyanin

Compound: phycocyanobilin
type of inhibition of UDP-GDH [5]: directly competitive | pIC50 ([5]; purified pigment): 8.57
